Test results from US20070281992A1, “COMBINATION OF GYRASE B INHIBITORS AND PROTEIN SYNTHESIS INHIBITORS AND USES THEREOF” (priority 2006, published 2007).
Like-named read-outs stand apart in the source and are kept apart here.

Columns and labels:
Assay type in all cases: cell-based
[1] = test system: Unconfirmed Vancomycin-intermediate Staphylococcus aureus Isolates; experiment: MIC assay (NCCLS broth dilution), unconfirmed VISA isolates; settings: Staphylococcus aureus; for MIC: read-out: Minimal Inhibitory Concentration
Procedure, shortened: (§1)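 NCCLS broth dilution, Mueller Hinton II broth; 11 two-fold serial dilutions per agent. Combos novobiocin:tetracycline or novobiocin:minocycline fixed at 2.5:1. Drugs dissolved in water; vancomycin control.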

[2] = test system: Unconfirmed Vancomycin-intermediate Staphylococcus epidermidis Isolates; experiment: MIC assay (NCCLS broth dilution), unconfirmed VISE isolates; settings: for MIC: read-out: Minimal Inhibitory Concentration
Procedure, shortened: as §1

[3] = test system: Linezolid-Resistant Staphylococcus aureus Isolates; experiment: MIC assay (NCCLS broth dilution), LRSA isolates; settings: Staphylococcus aureus; for MIC: read-out: Minimal Inhibitory Concentration
Procedure, shortened: as §1

[4] = test system: Enterococcus faecalis (ATCC 29212); experiment: MIC assay, quality control strain E. faecalis ATCC 29212; settings: ATCC29212, E. faecalis ATCC 29212, repeat runs 22FEB06-09MAR06, combinations at 2.5:1, read-out: Minimal Inhibitory Concentration, quality control
Procedure, shortened: as §1

[5] = test system: Methicillin-Susceptible Staphylococcus aureus Isolates; experiment: MIC assay (NCCLS broth dilution), MSSA clinical isolates; settings: Staphylococcus aureus; for MIC: read-out: Minimal Inhibitory Concentration
Procedure, shortened: as §1

[6] = test system: Vancomycin-intermediate Staphylococcus aureus Isolates; experiment: MIC assay (NCCLS broth dilution), VISA isolates; settings: for MIC: read-out: Minimal Inhibitory Concentration
Procedure, shortened: as §1

[7] = 52 MSSA isolates, combinations at 2.5:1, given as NB/partner

**Q.** How did the MIC ([1]; Unconfirmed VISA isolate 2013, 03MAR06) turn out when `CN(C)[C@@H]1C(O)=C(C(N)=O)C(=O)[C@@]2(O)C(O)=C3C(=O)c4c(O)cccc4[C@@](C)(O)[C@H]3C[C@@H]12` [TE, tetracycline] was run?
**A.** The MIC was 0.5 µg/mL.

**Q.** And the MIC ([1]; Unconfirmed VISA isolate 2014, 03MAR06)?
**A.** The MIC was greater than 16 µg/mL.

**Q.** What about the MIC ([1]; Unconfirmed VISA isolate 2015, 03MAR06) of the same molecule?
**A.** The MIC was 0.06 µg/mL.

**Q.** And the MIC ([1]; Unconfirmed VISA isolate 2016, 03MAR06)?
**A.** Its MIC is 0.5 µg/mL.

**Q.** And the MIC ([1]; Unconfirmed VISA isolate 2017, 03MAR06)?
**A.** The MIC was 0.25 µg/mL.

**Q.** And the MIC ([1]; Unconfirmed VISA isolate 2019, 03MAR06)?
**A.** Its MIC is greater than 16 µg/mL.

**Q.** And the MIC50 ([1]; 6 unconfirmed VISA isolates (vancomycin MIC 4 ug/ml), combinations at 2.5:1)?
**A.** The MIC50 was 0.5 µg/mL.

**Q.** And the “MIC Range” value ([2]; 3 unconfirmed VISE isolates, combinations at 2.5:1)?
**A.** Its value is 0.5 to 2 µg/mL.

**Q.** What about the MIC ([2]; Staphylococcus epidermidis, Unconfirmed VISE isolate 2024, 09MAR06) of the same molecule?
**A.** The MIC was 2 µg/mL.

**Q.** What about the MIC ([2]; Staphylococcus epidermidis, Unconfirmed VISE isolate 2025, 09MAR06) of the same molecule?
**A.** The MIC was 0.5 µg/mL.

**Q.** What about the MIC ([2]; Staphylococcus epidermidis, Unconfirmed VISE isolate 2026, 03MAR06) of the same molecule?
**A.** The MIC was 2 µg/mL.

**Q.** What about the MIC50 ([2]; Staphylococcus epidermidis, 3 unconfirmed VISE isolates, combinations at 2.5:1) of the same molecule?
**A.** The MIC50 was 2 µg/mL.

**Q.** And the MIC ([3]; LRSA isolate 1651, 24FEB06)?
**A.** The MIC was 0.5 µg/mL.

**Q.** And the MIC ([3]; LRSA isolate 1652, 24FEB06)?
**A.** Its MIC is 0.5 µg/mL.

**Q.** And the MIC ([3]; LRSA isolate 1725, 24FEB06)?
**A.** The MIC was greater than 16 µg/mL.

**Q.** What about the MIC50 ([3]; 3 LRSA isolates, combinations at 2.5:1) of the same molecule?
**A.** Its MIC50 is 0.5 µg/mL.

**Q.** What about the MIC [4] of the same molecule?
**A.** The MIC was 16 µg/mL.

**Q.** And the MIC ([5]; MSSA isolate 133, 03MAR06)?
**A.** Its MIC is 0.5 µg/mL.

**Q.** What about the MIC ([5]; MSSA isolate 134, 03MAR06) of the same molecule?
**A.** The MIC was 0.5 µg/mL.

**Q.** And the MIC ([5]; MSSA isolate 135, 03MAR06)?
**A.** Its MIC is 0.5 µg/mL.

**Q.** And the MIC ([5]; MSSA isolate 753, 22FEB06)?
**A.** Its MIC is 0.5 µg/mL.

**Q.** What about the MIC ([5]; MSSA isolate 754, 22FEB06) of the same molecule?
**A.** The MIC was 0.5 µg/mL.

**Q.** What about the MIC ([5]; MSSA isolate 754, 24FEB06) of the same molecule?
**A.** Its MIC is 0.5 µg/mL.

**Q.** What about the MIC ([5]; MSSA isolate 755, 22FEB06) of the same molecule?
**A.** The MIC was 0.5 µg/mL.

**Q.** What about the MIC ([5]; MSSA isolate 756, 03MAR06) of the same molecule?
**A.** Its MIC is 0.5 µg/mL.

**Q.** And the MIC ([5]; MSSA isolate 779, 22FEB06)?
**A.** The MIC was 0.5 µg/mL.

**Q.** And the MIC ([5]; MSSA isolate 780, 03MAR06)?
**A.** The MIC was 0.5 µg/mL.

**Q.** And the MIC ([5]; MSSA isolate 781, 03MAR06)?
**A.** The MIC was 0.5 µg/mL.

**Q.** What about the MIC ([5]; MSSA isolate 782, 22FEB06) of the same molecule?
**A.** The MIC was 1 µg/mL.

**Q.** What about the MIC ([5]; MSSA isolate 783, 22FEB06) of the same molecule?
**A.** The MIC was 0.5 µg/mL.

**Q.** And the MIC ([5]; MSSA isolate 784, 22FEB06)?
**A.** Its MIC is 16 µg/mL.

**Q.** What about the MIC ([5]; MSSA isolate 785, 22FEB06) of the same molecule?
**A.** The MIC was 0.5 µg/mL.

**Q.** What about the MIC ([5]; MSSA isolate 786, 22FEB06) of the same molecule?
**A.** The MIC was 0.5 µg/mL.

**Q.** What about the MIC ([5]; MSSA isolate 787, 22FEB06) of the same molecule?
**A.** The MIC was 0.5 µg/mL.

**Q.** And the MIC ([5]; MSSA isolate 788, 22FEB06)?
**A.** Its MIC is 0.5 µg/mL.

**Q.** What about the MIC ([5]; MSSA isolate 789, 24FEB06) of the same molecule?
**A.** Its MIC is 0.5 µg/mL.

**Q.** What about the MIC ([5]; MSSA isolate 790, 24FEB06) of the same molecule?
**A.** The MIC was 0.5 µg/mL.

**Q.** What about the MIC ([5]; MSSA isolate 791, 24FEB06) of the same molecule?
**A.** Its MIC is 0.5 µg/mL.

**Q.** And the MIC ([5]; MSSA isolate 792, 03MAR06)?
**A.** Its MIC is 0.5 µg/mL.

**Q.** And the MIC ([5]; MSSA isolate 793, 24FEB06)?
**A.** The MIC was 0.5 µg/mL.

**Q.** And the MIC ([5]; MSSA isolate 794, 24FEB06)?
**A.** Its MIC is 0.5 µg/mL.

**Q.** What about the MIC ([5]; MSSA isolate 994, 22FEB06) of the same molecule?
**A.** The MIC was 0.5 µg/mL.

**Q.** And the MIC ([5]; MSSA isolate 995, 03MAR06)?
**A.** The MIC was 0.5 µg/mL.

**Q.** And the MIC ([5]; MSSA isolate 996, 22FEB06)?
**A.** Its MIC is 0.5 µg/mL.

**Q.** What about the MIC ([5]; MSSA isolate 997, 22FEB06) of the same molecule?
**A.** Its MIC is 0.5 µg/mL.

**Q.** What about the MIC ([5]; MSSA isolate 998, 03MAR06) of the same molecule?
**A.** Its MIC is 0.5 µg/mL.

**Q.** What about the MIC ([5]; MSSA isolate 999, 22FEB06) of the same molecule?
**A.** The MIC was greater than 16 µg/mL.

**Q.** What about the MIC ([5]; MSSA isolate 1000, 24FEB06) of the same molecule?
**A.** Its MIC is 0.5 µg/mL.

**Q.** What about the MIC ([5]; MSSA isolate 1001, 24FEB06) of the same molecule?
**A.** Its MIC is 0.5 µg/mL.

**Q.** And the MIC ([5]; MSSA isolate 1002, 24FEB06)?
**A.** Its MIC is 0.5 µg/mL.

**Q.** What about the MIC ([5]; MSSA isolate 1003, 03MAR06) of the same molecule?
**A.** The MIC was 0.5 µg/mL.

**Q.** And the MIC ([5]; MSSA isolate 1005, 24FEB06)?
**A.** Its MIC is 0.25 µg/mL.

**Q.** What about the MIC ([5]; MSSA isolate 1006, 24FEB06) of the same molecule?
**A.** Its MIC is 0.5 µg/mL.

**Q.** What about the MIC ([5]; MSSA isolate 1007, 24FEB06) of the same molecule?
**A.** Its MIC is 0.5 µg/mL.

**Q.** What about the MIC ([5]; MSSA isolate 1008, 24FEB06) of the same molecule?
**A.** Its MIC is 0.5 µg/mL.

**Q.** And the MIC ([5]; MSSA isolate 1009, 24FEB06)?
**A.** The MIC was 0.5 µg/mL.

**Q.** And the MIC ([5]; MSSA isolate 1131, 24FEB06)?
**A.** The MIC was 0.5 µg/mL.

**Q.** What about the MIC ([5]; MSSA isolate 1132, 03MAR06) of the same molecule?
**A.** The MIC was 0.5 µg/mL.

**Q.** And the MIC ([5]; MSSA isolate 1133, 24FEB06)?
**A.** The MIC was 0.5 µg/mL.

**Q.** What about the MIC ([5]; MSSA isolate 1134, 24FEB06) of the same molecule?
**A.** Its MIC is 0.5 µg/mL.

**Q.** What about the MIC ([5]; MSSA isolate 1654, 03MAR06) of the same molecule?
**A.** The MIC was 0.5 µg/mL.

**Q.** What about the MIC ([5]; MSSA isolate 1656, 03MAR06) of the same molecule?
**A.** Its MIC is 0.5 µg/mL.

**Q.** What about the MIC ([5]; MSSA isolate 1662, 03MAR06) of the same molecule?
**A.** The MIC was 0.5 µg/mL.

**Q.** What about the MIC ([5]; MSSA isolate 1663, 03MAR06) of the same molecule?
**A.** Its MIC is 1 µg/mL.

**Q.** And the MIC ([5]; MSSA isolate 1666, 03MAR06)?
**A.** The MIC was 0.5 µg/mL.

**Q.** And the MIC ([5]; MSSA isolate 1667, 03MAR06)?
**A.** The MIC was 1 µg/mL.

**Q.** And the MIC ([5]; MSSA isolate 1668, 03MAR06)?
**A.** Its MIC is 0.5 µg/mL.

**Q.** What about the MIC ([5]; MSSA isolate 1671, 03MAR06) of the same molecule?
**A.** Its MIC is 0.5 µg/mL.

**Q.** What about the MIC ([5]; MSSA isolate 1728, 03MAR06) of the same molecule?
**A.** Its MIC is 0.25 µg/mL.

**Q.** What about the MIC ([5]; MSSA isolate 1728, retest 09MAR06) of the same molecule?
**A.** The MIC was 0.25 µg/mL.

**Q.** And the MIC50 [5, 7]?
**A.** The MIC50 was 0.5 µg/mL.

**Q.** And the MIC90 [5, 7]?
**A.** Its MIC90 is 0.5 µg/mL.

**Q.** What about the “MIC Range” value ([6]; 2 VISA isolates, combinations at 2.5:1, given as NB/partner) of the same molecule?
**A.** The value was “.25 to 2 µg/mL”.

**Q.** And the MIC ([6]; Staphylococcus aureus, VISA isolate 2012, 03MAR06)?
**A.** The MIC was 2 µg/mL.

**Q.** And the MIC ([6]; Staphylococcus aureus, VISA isolate 2018, 03MAR06)?
**A.** Its MIC is 0.25 µg/mL.

**Q.** What about the MIC50 ([6]; Staphylococcus aureus, 2 VISA isolates, combinations at 2.5:1, given as NB/partner) of the same molecule?
**A.** Its MIC50 is 0.25 µg/mL.
